In patent US8178570B2, “Tie-2 modulators and methods of use” (Exelixis, Inc., priority 2003, dated 2012):

Molecular target: Tie-2 (Homo sapiens, UniProt Q02763)
Assay: Tie-2 tyrosine kinase activity: kinase-dependent ATP consumption (pEY substrate, luciferase/luciferin chemiluminescence) or 33P-ATP incorporation into substrate
Type: biochemical
Details: Tie-2 (human enzyme) inhibition, Table 2, class symbols A-D
In short: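 Tie-2 kinase activity is read either as ATP consumption with pEY substrate by luciferase/luciferin chemiluminescence, or as 33P incorporation from 33P-ATP into plate-adsorbed substrate by scintillation counting. IC50 values are binned as A <50 nM, B >50–1000 nM, C >1000–<10,000 nM, and D ≥10,000 nM.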

Tie-2, sequence (Q02763 23-1124): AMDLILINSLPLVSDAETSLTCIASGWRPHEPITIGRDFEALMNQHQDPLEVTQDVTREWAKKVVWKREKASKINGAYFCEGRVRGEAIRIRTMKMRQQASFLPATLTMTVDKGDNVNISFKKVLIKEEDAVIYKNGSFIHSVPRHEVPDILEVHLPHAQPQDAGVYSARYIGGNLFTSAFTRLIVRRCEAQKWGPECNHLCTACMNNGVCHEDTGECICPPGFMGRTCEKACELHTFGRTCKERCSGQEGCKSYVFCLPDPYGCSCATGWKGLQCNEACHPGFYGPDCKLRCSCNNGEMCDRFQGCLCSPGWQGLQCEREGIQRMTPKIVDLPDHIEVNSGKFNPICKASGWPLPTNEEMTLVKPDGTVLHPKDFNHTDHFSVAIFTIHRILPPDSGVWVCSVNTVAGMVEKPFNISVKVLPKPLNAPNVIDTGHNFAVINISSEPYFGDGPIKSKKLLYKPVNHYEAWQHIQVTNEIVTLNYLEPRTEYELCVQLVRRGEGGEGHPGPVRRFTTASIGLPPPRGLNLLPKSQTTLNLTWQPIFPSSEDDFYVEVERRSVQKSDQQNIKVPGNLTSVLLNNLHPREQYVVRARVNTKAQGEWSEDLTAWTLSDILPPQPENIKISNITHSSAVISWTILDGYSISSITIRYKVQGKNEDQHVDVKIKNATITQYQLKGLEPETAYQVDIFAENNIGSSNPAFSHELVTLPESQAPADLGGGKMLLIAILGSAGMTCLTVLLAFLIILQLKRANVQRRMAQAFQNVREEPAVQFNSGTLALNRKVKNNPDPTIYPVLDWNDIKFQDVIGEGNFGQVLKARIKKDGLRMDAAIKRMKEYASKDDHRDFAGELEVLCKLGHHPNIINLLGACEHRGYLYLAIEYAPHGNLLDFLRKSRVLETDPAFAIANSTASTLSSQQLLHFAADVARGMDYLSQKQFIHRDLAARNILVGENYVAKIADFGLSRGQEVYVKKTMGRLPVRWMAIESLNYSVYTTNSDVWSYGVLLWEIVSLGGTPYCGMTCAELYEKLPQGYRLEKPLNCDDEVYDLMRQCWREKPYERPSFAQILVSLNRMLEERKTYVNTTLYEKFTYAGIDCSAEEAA

Row | Compound | IC50 [nM]
1 | COc1ccc(-c2nc(-c3ccncc3)nn2CCN(C(=O)Nc2cc(Cl)cc(Cl)c2)C2CCCC2)cc1Cl [Entry 141, N-(2-{5-[3-chloro-4-(methyloxy)phenyl]-3-pyridin-4-yl-1H-1,2,4-triazol-1-yl}ethyl)-N-cyclopentyl-N′-(3,5-dichlorophenyl)urea] | ≥ 10000
2 | Cc1nc(-c2cc(N)nc(N)c2)nn1CCN(C(=O)Cc1cccc2ccccc12)C1CCCC1 [Entry 186, N-cyclopentyl-N-{2-[3-(2,6-diaminopyridin-4-yl)-5-methyl-1H-1,2,4-triazol-1-yl]ethyl}-2-naphthalen-1-ylacetamide] | 50 to 1000
3 | COc1ccc(-c2nc(-c3ccncc3)nn2CCN(C(=O)Nc2ccccc2SC)C2CCCC2)cc1Cl [Entry 154, N-(2-{5-[3-chloro-4-(methyloxy)phenyl]-3-pyridin-4-yl-1H-1,2,4-triazol-1-yl}ethyl)-N-cyclopentyl-N′-[2-(methylthio)phenyl]urea] | ≥ 10000
4 | O=C(Cc1cccc2ccccc12)N(CCn1nc(-c2ccncc2)nc1-c1ccc(C(F)(F)F)cc1)C1CCCC1 [Entry 76, N-cyclopentyl-2-naphthalen-1-yl-N-(2-{3-pyridin-4-yl-5-[4-(trifluoromethyl)phenyl]-1H-1,2,4-triazol-1-yl}ethyl)acetamide] | < 50
5 | CCCCCCCNC(=O)N(CCn1nc(-c2ccncc2)nc1-c1ccc(OC)c(Cl)c1)C1CCCC1 [Entry 104, N-(2-{5-[3-chloro-4-(methyloxy)phenyl]-3-pyridin-4-yl-1H-1,2,4-triazol-1-yl}ethyl)-N-cyclopentyl-N′-heptylurea] | ≥ 10000
6 | O=C(Cc1cccc2ccccc12)N(CCc1n[nH]c(-c2ccncc2)n1)C1CCCC1 [Entry 49, N-cyclopentyl-2-naphthalen-1-yl-N-[2-(5-pyridin-4-yl-1H-1,2,4-triazol-3-yl)ethyl]acetamide] | < 50
7 | Cc1nc(-c2ccnc(NC3CCCNC3)c2)nn1CCN(C(=O)Cc1cccc2ccccc12)C1CCCC1 (centres unmarked) [Entry 181, N-cyclopentyl-N-(2-{5-methyl-3-[2-(piperidin-3-ylamino)pyridin-4-yl]-1H-1,2,4-triazol-1-yl}ethyl)-2-naphthalen-1-ylacetamide] | 50 to 1000
8 | Cc1cccc(-c2nc(-c3ccncc3)n(CCN(C(=O)Cc3cccc4ccccc34)C3CCCC3)n2)c1 [Entry 73, N-cyclopentyl-N-{2-[3-(3-methylphenyl)-5-pyridin-4-yl-1H-1,2,4-triazol-1-yl]ethyl}-2-naphthalen-1-ylacetamide] | 1000 to 10000
9 | COc1ccc(-c2nc(-c3ccncc3)n(CCN(C(=O)Cc3cccc4ccccc34)C3CC3)n2)cc1Cl [Entry 38, N-(2-{3-[3-chloro-4-(methyloxy)phenyl]-5-pyridin-4-yl-1H-1,2,4-triazol-1-yl}ethyl)-N-cyclopropyl-2-naphthalen-1-ylacetamide] | 50 to 1000
10 | O=C(Cc1cccc2ccccc12)N(CCn1nc(-c2ccc(Br)cc2)nc1-c1ccncc1)C1CCCC1 [Entry 68, N-{2-[3-(4-bromophenyl)-5-pyridin-4-yl-1H-1,2,4-triazol-1-yl]ethyl}-N-cyclopentyl-2-naphthalen-1-ylacetamide] | < 50
11 | COc1ccc(-c2nc(-c3ccncc3)nn2CCN(C(=O)Nc2ccccc2C(C)C)C2CCCC2)cc1Cl [Entry 157, N-(2-{5-[3-chloro-4-(methyloxy)phenyl]-3-pyridin-4-yl-1H-1,2,4-triazol-1-yl}ethyl)-N-cyclopentyl-N′-[2-(1-methylethyl)phenyl]urea] | ≥ 10000
12 | O=C(Cc1cccc2ccccc12)N(CCn1nc(-c2ccncc2)nc1-c1ccc2c(c1)OCO2)C1CCCC1 [Entry 63, N-{2-[5-(1,3-benzodioxol-5-yl)-3-pyridin-4-yl-1H-1,2,4-triazol-1-yl]ethyl}-N-cyclopentyl-2-naphthalen-1-ylacetamide] | < 50
13 | O=C(Cc1cccc2ccccc12)N(CCn1nc(-c2ccccc2)nc1-c1ccncc1)C1CCCC1 [Entry 51, N-cyclopentyl-2-naphthalen-1-yl-N-[2-(3-phenyl-5-pyridin-4-yl-1H-1,2,4-triazol-1-yl)ethyl]acetamide] | 1000 to 10000
14 | O=C(Cc1cccc2ccccc12)N(CCn1nc(-c2cccc(F)c2)nc1-c1ccncc1)C1CCCC1 [Entry 57, N-cyclopentyl-N-{2-[3-(3-fluorophenyl)-5-pyridin-4-yl-1H-1,2,4-triazol-1-yl]ethyl}-2-naphthalen-1-ylacetamide] | 1000 to 10000
15 | COc1ccc(-c2nc(-c3ccncc3)nn2CCN(C(=O)Nc2cc(Cl)c(OC)cc2OC)C2CCCC2)cc1Cl [Entry 140, N′-[5-chloro-2,4-bis(methyloxy)phenyl]-N-(2-{5-[3-chloro-4-(methyloxy)phenyl]-3-pyridin-4-yl-1H-1,2,4-triazol-1-yl}ethyl)-N-cyclopentylurea] | ≥ 10000
16 | COc1ccc(-c2nc(-c3ccncc3)nn2CCN(C(=O)Nc2cccc([N+](=O)[O-])c2C)C2CCCC2)cc1Cl [Entry 132, N-(2-{5-[3-chloro-4-(methyloxy)phenyl]-3-pyridin-4-yl-1H-1,2,4-triazol-1-yl}ethyl)-N-cyclopentyl-N′-(2-methyl-3-nitrophenyl)urea] | ≥ 10000

Row | Compound | IC50 [nM]
17 | COc1ccc(-c2nc(-c3ccncc3)nn2CCN(C(=O)Nc2ccc(C)cc2C)C2CCCC2)cc1Cl [Entry 128, N-(2-{5-[3-chloro-4-(methyloxy)phenyl]-3-pyridin-4-yl-1H-1,2,4-triazol-1-yl}ethyl)-N-cyclopentyl-N′-(2,4-dimethylphenyl)urea] | ≥ 10000
18 | CCOC(=O)Cn1nc(-c2ccncc2)nc1-c1cc(Cl)cc(Cl)c1 [Entry 15, ethyl [5-(3,5-dichlorophenyl)-3-pyridin-4-yl-1H-1,2,4-triazol-1-yl]acetate] | ≥ 10000
19 | COc1ccc(-c2nc(-c3ccncc3)nn2CCN(C(=O)Nc2cccc(C(F)(F)F)c2)C2CCCC2)cc1Cl [Entry 155, N-(2-{5-[3-chloro-4-(methyloxy)phenyl]-3-pyridin-4-yl-1H-1,2,4-triazol-1-yl}ethyl)-N-cyclopentyl-N′-[3-(trifluoromethyl)phenyl]urea] | ≥ 10000
20 | Cc1nc(-c2ccnnc2)nn1CCN(C(=O)Cc1cccc2ccccc12)C1CCCC1 [Entry 69, N-cyclopentyl-N-[2-(5-methyl-3-pyridazin-4-yl-1H-1,2,4-triazol-1-yl)ethyl]-2-naphthalen-1-ylacetamide] | 50 to 1000
21 | COc1cccc(-c2nc(-c3ccncc3)n(CCN(C(=O)Cc3cccc4ccccc34)C3CCCC3)n2)c1 [Entry 23, N-cyclopentyl-N-(2-{3-[3-(methyloxy)phenyl]-5-pyridin-4-yl-1H-1,2,4-triazol-1-yl}ethyl)-2-naphthalen-1-ylacetamide] | 50 to 1000
22 | Cc1nc(-c2ccncc2)nn1CCN(CCN(C)C)C(=O)Cc1cccc2ccccc12 [Entry 170, N-[2-(dimethylamino)ethyl]-N-[2-(5-methyl-3-pyridin-4-yl-1H-1,2,4-triazol-1-yl)ethyl]-2-naphthalen-1-ylacetamide] | 1000 to 10000
23 | COc1ccc(-c2nc(-c3cccnc3)n(CC(=O)NC3CCCC3)n2)cc1Cl [Entry 12, 2-{3-[3-chloro-4-(methyloxy)phenyl]-5-pyridin-3-yl-1H-1,2,4-triazol-1-yl}-N-cyclopentylacetamide] | ≥ 10000
24 | Cc1ccc(-c2nc(-c3ccncc3)n(CCN(C(=O)Cc3cccc4ccccc34)C3CCCC3)n2)cc1 [Entry 71, N-cyclopentyl-N-{2-[3-(4-methylphenyl)-5-pyridin-4-yl-1H-1,2,4-triazol-1-yl]ethyl}-2-naphthalen-1-ylacetamide] | 1000 to 10000
25 | COc1ccc(-c2nc(-c3ccncc3)nn2CCN(C(=O)Nc2ccc(I)cc2)C2CCCC2)cc1Cl [Entry 146, N-(2-{5-[3-chloro-4-(methyloxy)phenyl]-3-pyridin-4-yl-1H-1,2,4-triazol-1-yl}ethyl)-N-cyclopentyl-N′-(4-iodophenyl)urea] | ≥ 10000
26 | COc1ccc(-c2nc(-c3ccncc3)nn2CCN(C(=O)c2ccnc3ccccc23)C2CCCC2)cc1Cl [Entry 28, N-(2-{5-[3-chloro-4-(methyloxy)phenyl]-3-pyridin-4-yl-1H-1,2,4-triazol-1-yl}ethyl)-N-cyclopentylquinoline-4-carboxamide] | ≥ 10000
27 | COc1ccc(-c2nc(-c3ccncc3)nn2CCN(C(=O)Nc2cccc(C)c2)C2CCCC2)cc1Cl [Entry 106, N-(2-{5-[3-chloro-4-(methyloxy)phenyl]-3-pyridin-4-yl-1H-1,2,4-triazol-1-yl}ethyl)-N-cyclopentyl-N′-(3-methylphenyl)urea] | ≥ 10000
28 | Cc1nc(-c2ccc3nsnc3c2)nn1CCN(C(=O)Cc1cccc2ccccc12)C1CCCC1 [Entry 162, N-{2-[3-(2,1,3-benzothiadiazol-5-yl)-5-methyl-1H-1,2,4-triazol-1-yl]ethyl}-N-cyclopentyl-2-naphthalen-1-ylacetamide] | 50 to 1000
29 | COc1ccc(-c2nc(-c3ccncc3)nn2CCN(C(=O)Nc2cccc(Cl)c2)C2CCCC2)cc1Cl [Entry 105, N-(2-{5-[3-chloro-4-(methyloxy)phenyl]-3-pyridin-4-yl-1H-1,2,4-triazol-1-yl}ethyl)-N′-(3-chlorophenyl)-N-cyclopentylurea] | ≥ 10000
30 | COc1ccc(-c2nc(-c3ccncc3)nn2CCN(C(=O)NCc2ccccc2)C2CCCC2)cc1Cl [Entry 92, N-(2-{5-[3-chloro-4-(methyloxy)phenyl]-3-pyridin-4-yl-1H-1,2,4-triazol-1-yl}ethyl)-N-cyclopentyl-N′-(phenylmethyl)urea] | 1000 to 10000
31 | Cc1nc(-c2ccncc2)nn1CCN(C(=O)Cc1cccc2ccccc12)C1CCCC1 [Entry 43, N-cyclopentyl-N-[2-(5-methyl-3-pyridin-4-yl-1H-1,2,4,-triazol-1-yl)ethyl]-2-naphthalen-1-ylacetamide] | < 50
32 | COc1ccc(-c2nc(-c3ccncc3)n(CCN(C(=O)Cc3cccc4ccccc34)C(C)C)n2)cc1Cl [Entry 35, N-(2-{3-[3-chloro-4-(methyloxy)phenyl]-5-pyridin-4-yl-1H-1,2,4-triazol-1-yl}ethyl)-N-(1-methylethyl)-2-naphthalen-1-ylacetamide] | ≥ 10000
